pIC50: −log10 of the molar value.
How the values were obtained:
[1] = tested on: human corneal epithelial cells; experiment: Clonogenic cell survival assay, corneal epithelial cells with PDGF-AB (Example 1); type: cell-based; settings: 10 ng/ml PDGF-AB, 14 days
Protocol: (§1) Primary isolated human corneal epithelial cells; Normal, Human cells (ATCC® PCS-700-010™) were maintained in culture at 37° C. with 5% CO2 and 95% humidity in serum reduced (5% fetal calf serum) modified promocell media (MPM) supplemented with 4 ng/ml fibronectin (FN), 2 ng/ml human recombinant vascular endothelial growth factor (VEGF) and 4 ng/ml basic fibroblast growth factor (bFGF).
A clonogenic cell survival assay determines the ability of a cell to proliferate indefinitely. The effects of phenylcapsaicin (2) on clonogenic survival of corneal epithelial cells was investigated by plating the cells with increasing numbers (102 to 5×104) in 25 cm^2 flasks. SU9518, a known inhibitor PDGF that has shown the ability to reduce radiation-induced fibroblast and endothelial cell activation, was used as the positive control. The cells were incubated with 0-10 μM of phenylcapsaicin and SU9518 separately in the presence of 10 ng/ml PDGF-AB. The flasks were returned to the incubator for 14 days, after which they were stained with crystal violet. The colonies were counted, and the surviving

[2] = tested on: human corneal epithelial cells; experiment: Proliferation assay, VEGF+bFGF-stimulated corneal epithelial proliferation (Example 1); type: cell-based; settings: Corneal epithelial cell, highest dose tested 10 uM, 72 hours, read-out: IC50, VEGF+bFGF-induced proliferation
Protocol: as §1
(§2) Corneal cells were harvested by trypsinization at 37° C. and neutralized with trypsin-neutralizing solution. A suspension of 50,000 cells in MPM/DMEM was added to 25 ml flasks. The cells were incubated with phenylcapsaicin or SU9518 for 1 hour in cytokine-free medium at standard conditions and incubated for another 72 hours in the presence of final mediums (either with 10 ng/ml PDGF-AB+4 ng/ml FN, or with 2 ng/ml VEGF+4 ng/ml bFGF+4 ng/ml FN). The cells were then dispersed in trypsin, resuspended, and counted in a coulter counter.

[3] = tested on: human bronchial epithelial cells; experiment: Clonogenic cell survival assay, bronchial epithelial cells with PDGF-AB (Example 2); type: cell-based
Protocol: (§3) Primary isolated human bronchial epithelial cells (NHBE) (Normal, Human (ATCC® BEAS-2B™)) were cultured up to passage 6. […].
A clonogenic cell survival assay determines the ability of a cell to proliferate indefinitely. The effects of phenylcapsaicin on clonogenic survival of bronchial epithelial cells was investigated by plating the cells with increasing numbers (10^2 to 5×10^4) in 25 cm^2 flasks. SU9518, a known inhibitor for PDGF which has shown the ability to reduce radiation-induced fibroblast and endothelial cell activation, was used as the positive control. The cells were incubated with 0-10 μM of phenylcapsaicin and SU9518 separately in the presence of 10 ng/ml PDGF-AB. The flasks were returned to the incubator for 14 days, after which they were stained with crystal violet. The colonies were counted, and the surviving percentage was determined for clonogenic survival after correcting for plating efficiency.

[4] = tested on: human bronchial epithelial cells; experiment: Proliferation assay, PDGF-stimulated bronchial epithelial proliferation (Example 2); type: cell-based; settings: for pIC50: Homo sapiens, Epithelial cell, 10 ng/ml PDGF, 72 hours
Protocol: as §3
as §2, with “Bronchial” for “Corneal”, “trypsinisation” for “trypsinization”, “neutralised” for “neutralized”, “trypsin-neutralising” for “trypsin-neutralizing”

[5] = tested on: human bronchial epithelial cells; experiment: Proliferation assay, VEGF+bFGF-stimulated bronchial epithelial proliferation (Example 2); type: cell-based; settings: 72 hours
Protocol: as §3
as §2, with “Bronchial” for “Corneal”, “trypsinisation” for “trypsinization”, “neutralised” for “neutralized”, “trypsin-neutralising” for “trypsin-neutralizing”

[6] = tested on: human bronchial epithelial cells; experiment: Clonogenic cell survival assay, bronchial epithelial cells with PDGF-AB (Example 3); type: cell-based; settings: 10 ng/ml PDGF-AB, 14 days
Protocol: (§4) Primary isolated human bronchial epithelial cells (NHBE) were used in this assay sourced from the American Tissue Culture Collection (Normal, Human (ATCC® BEAS-2B™)) and were cultured up to passage 6. […].
A clonogenic cell survival assay determines the ability of a cell to proliferate indefinitely. Cells were plated with increasing numbers (102 to 5×10^4) in 25 cm^2 flasks. SU9518, SU9518, a known inhibitor PDGF that has shown the ability to reduce radiation-induced fibroblast and endothelial cell activation, and phenylcapsaicin were used as positive controls. The cells were incubated with 0-10 μM (3% DMSO aqueous) of phenylcapsaicin, SU9518, and compounds 1 and 3-7 separately in the presence of 10 ng/ml PDGF-AB (Sigma Aldrich). The flasks were returned to the incubator for 14 days, after which they were stained with crystal violet (Sigma Aldrich). The colonies were counted and the surviving percentage was determined for clonogenic survival after correcting for plating efficiency.

[7] = tested on: human bronchial epithelial cells; experiment: Clonogenic cell survival assay, bronchial epithelial cells with PDGF-AB (Example 4); type: cell-based; settings: 10 ng/ml PDGF-AB, 14 days
Protocol: as §4
The effects of Phenylcapsaicin (2) on clonogenic survival of bronchial epithelial cells, by plating the cells with increasing numbers (102 to 5×104) in 25 cm^2 flasks were investigated. SU9518* and Phenylcapsaicin were used as positive controls. The cells were incubated with 0-10 μM (3% DMSO aqueous) of Phenylcapsaicin, SU9518, and compounds 8-12 separately in the presence of 10 ng/ml PDGF-AB (Sigma Aldrich). The flasks were returned to the incubator for 14 days, after which they were stained with crystal violet (Sigma Aldrich). The colonies were counted and the surviving percentage was determined for clonogenic survival after correcting for plating efficiency. The synthetic analogs were all calculated at 100% purity for molar concentrations.

[8] = Acute inhalation toxicity test on rats; settings: both sexes, rat, in vivo, inhaled; single exposure via inhalation, nose-only; male and female rats; based on active substance
Excerpt: These findings strongly imply that phenylcapsaicin may be a useful drug against IPF, slowing down or reducing scarring of the lung tissue. Such a reduction in scarring may lead to a delayed progression of IPF and/or ease the symptoms of IPF, such as respiratory difficulty and/or coughing. […] This finding is an indication that the compounds of the invention will have a low toxicity in use against IPF using inhalation as the route of administration.

[9] = Rage Paulsen et al. 2018; cited from earlier work

COc1cc(CNC(=O)CCCCC#Cc2ccccc2)ccc1O [Compound 2, N-(4-hydroxy-3-methoxybenzyl)-7-phenylhept-6-ynamide]
effect on clonogenic survival ([1]; 0-10 μM): dose-dependant inhibitory effect on survival | surviving fraction of epithelial cells ([1]; 5 μM): 27% | pIC50 [2]: < 5.00 | effect on clonogenic survival ([3]; 0-10 μM, 10 ng/ml PDGF-AB, 14 days): dose-dependent inhibitory effect on survival | surviving fraction of epithelial cells ([3]; 5 μM, 10 ng/ml PDGF-AB, 14 days): 35% | survival rate of the cells ([3]; 10 μM, after 14 days, in the presence of PDGF): 35% | pIC50 ([4]; read-out: IC50, PDGF-induced epithelial proliferation): ~6.00 | pIC50 ([4]; read-out: IC50, PDGF-induced proliferation): ~5.70 | selectivity for PDGF pathway ([4]; PDGF- versus VEGF+bFGF-induced proliferation, bronchial cells): work selectively on the PDGF pathway, although at a lower selectivity than in corneal cells | IC75, epithelial proliferation stimulated by VEGF and bFGF [5]: ~5 µM | pIC50 ([5]; Homo sapiens, Epithelial cell, highest dose tested 10 uM, read-out: IC50, VEGF+bFGF-induced proliferation): < 5.00 | effect on clonogenic survival / PDGF inhibition (words) ([6]; 0-10 μM): reduction in the survival fraction of endothelial cells in a dose dependent manner | Clonogenic Survival Assay (percent) ([6]; 0.10 μM): 83% | Clonogenic Survival Assay (percent) ([6]; 0.10 μM, listed as phenylcapsaicin): 83% | Clonogenic Survival Assay (percent) ([6]; 0.50 μM): 59% | Clonogenic Survival Assay (percent) ([6]; 1.00 μM): 41% | Clonogenic Survival Assay (percent) ([6]; 2.00 μM): 35% | Clonogenic Survival Assay (percent) ([6]; 5.00 μM): 35% | Clonogenic Survival Assay (percent) ([6]; 10.00 μM): 32% | Clonogenic Survival Assay (percent) ([6]; 10.00 μM, listed as phenylcapsaicin): 32% | effect on clonogenic survival / PDGF inhibition (words) ([7]; 0-10 μM): reduction in the survival fraction of endothelial cells in a dose dependent manner | Clonogenic Survival Assay (percent) ([7]; 0.10 uM): 83% | Clonogenic Survival Assay (percent) ([7]; 0.50 uM): 59% | Clonogenic Survival Assay (percent) ([7]; 1.00 uM): 41% | Clonogenic Survival Assay (percent) ([7]; 2.00 uM): 35% | Clonogenic Survival Assay (percent) ([7]; 5.00 uM): 35% | Clonogenic Survival Assay (percent) ([7]; 10.00 uM): 32% | LC50 [8]: > 5.65 mg/L | gene mutations and chromosomal damage [9]: safe with regards to gene mutations and chromosomal damage | systemic toxicity [9]: low systemic toxicity
